In patent US20210121419A1, “METFORMIN COMPOUNDED COMPOSITION AND METHOD THEREOF” (ZHOUSHAN TRITECH BIOSCIENCES, INC., priority 2018, published 2021):

System: enteric microorganism
Test: Low dose metformin usage in a large population
Type: in vivo, human
Settings: low dose 0.125-0.25 g/day
Source text: One of the new discoveries of the present disclosure is the important health effect of low dose metformin. The normal dosage of metformin in Chinese population is 1-2 g per day, and the dose for the anti-aging clinical trial in the US is 1.7 g per day. It is known that one of the functions of metformin in regulating human health is through regulating enteric microorganism, whereas an unexpected discovery of the present disclosure is that low dose metformin (0.1-0.5 g/day, prefer for 0.125-0.25 g/day) can also promote health through regulating enteric microorganism. The application of low dose metformin can avoid long-term application caused side effects such as hypoglycemia, lactic acidosis, and hepatic and renal toxicity when normal dosage is used.

- time until stool returned to normal: 4 to 5 days
- stool effect (2-3 days after usage): mild diarrhea
SMILES: CN(C)C(=N)N=C(N)N [metformin, 1,1-Dimethylbiguanide]
